The target of the experiment is SARS-CoV-2 Mac1 (Severe acute respiratory syndrome coronavirus 2, UniProt P0DTD1). Nature of the experiment: biochemical. Particulars: for inhibition at 100 µM: read-out: %inhibition; for %inhibition: 100 µM, inhibitor.

Counter-ions that a name gives are not always drawn.

Broadly, the inhibition is the percentage by which the read-out fell short of the control. In the case of `CC1(COc2ccc3c(c2)ncn3-c2ccc3cccc(N4CCC(N)CC4)c3n2)COC1` [Crenolanib (CP-868596)], the inhibition at 100 µM was found to be 0%.
Consider `N#Cc1ccc(Oc2ccc3c(c2)COB3O)cc1` [Crisaborole (AN2728)], for which the inhibition at 100 µM worked out at 10%.
Regarding `C[C@@H](Oc1cc(-c2cnn(C3CCNCC3)c2)cnc1N)c1c(Cl)ccc(F)c1Cl` [Crizotinib (PF-02341066)], the inhibition at 100 µM turned out to be 6.7%.
On the same count and under the same terms, the same measure for `COc1cc(/C=C/C(=O)CC(=O)/C=C/c2ccc(O)c(OC)c2)ccc1O` [Curcumin]: 1.88%; for `CC1CC(OC(=O)C(O)c2ccccc2)CC(C)(C)C1` (stereo not shown) [Cyclandelate]: 0%; for `C1CNCCNCCNCCN1` [Cyclen]: 0%.
Still for that read-out and setting: then `CN1CCN(C(c2ccccc2)c2ccccc2)CC1` [Cyclizine 2HCl], with 9.76%; and `CN(C)CCC=C1c2ccccc2C=Cc2ccccc21` [Cyclobenzaprine HCl], with 3.24%; and `CC(=O)Oc1ccc(C(=C2CCCCC2)c2ccc(OC(C)=O)cc2)cc1` [Cyclofenil], with 11.6%.
`CC(=O)O[C@]1(C(C)=O)CC[C@H]2[C@@H]3C=C(Cl)C4=CC(=O)[C@@H]5C[C@@H]5[C@]4(C)[C@H]3CC[C@@]21C` [Cyproterone Acetate]: the inhibition at 100 µM came out at 0%.
For `Nc1nc(N)nc(NC2CC2)n1` [Cyromazine], the inhibition at 100 µM is 20.5%.
On the same count and under the same terms, then `NCCS` [Cysteamine HCl], with 35.3%; and `Nc1ccn([C@@H]2O[C@H](CO)[C@@H](O)[C@@H]2O)c(=O)n1` [Cytarabine], with 0%; and `O=c1cccc2n1C[C@@H]1CNC[C@H]2C1` [Cytisine], with 0%.
Still for that read-out and setting: the same measure for `CC(C)(CO)[C@@H](O)C(=O)NCCCO` [D panthenol]: 0%.
Consider `N[C@@H]1CONC1=O` [D-Cycloserine], for which the inhibition at 100 µM was 6.32%.
On the same count and under the same terms, the same measure for `OC[C@@H](O)[C@@H](O)[C@H](O)[C@H](O)CO` [D-Mannitol]: 0%.
As for `N[C@H](Cc1ccccc1)C(=O)O` [D-Phenylalanine], the inhibition at 100 µM was found to be 4.94%.
As for `NC(=O)CC[C@@H](N)C(=O)O` [D-glutamine], the inhibition at 100 µM stood at 2.59%.
With `CCCCCCOC(=O)NC(=N)c1ccc(NCc2nc3cc(C(=O)N(CCC(=O)OCC)c4ccccn4)ccc3n2C)cc1` [Dabigatran Etexilate], the inhibition at 100 µM is 0%.
For orientation: %inhibition means the relative decrease from the control value, in per cent. Regarding `CC(C)(C)c1nc(-c2cccc(NS(=O)(=O)c3c(F)cccc3F)c2F)c(-c2ccnc(N)n2)s1` [Dabrafenib (GSK2118436)], the “%inhibition” value turned out to be 34.76%.
For `CC(C)(C)c1nc(-c2cccc(NS(=O)(=O)c3c(F)cccc3F)c2F)c(-c2ccnc(N)n2)s1` [Dabrafenib Mesylate], the “%inhibition” value was determined as 0.5368%.
Turning to `CN(C)/N=N/c1[nH]cnc1C(N)=O` [Dacarbazine], the inhibition at 100 µM is 26.1%.
For `COC(=O)N[C@H](C(=O)N1CCC[C@H]1c1ncc(-c2ccc(-c3ccc(-c4cnc([C@@H]5CCCN5C(=O)[C@@H](NC(=O)OC)C(C)C)[nH]4)cc3)cc2)[nH]1)C(C)C` [Daclatasvir (BMS-790052)], the inhibition at 100 µM was 1.65%.
Still for that read-out and setting: the same measure for `COc1cc2ncnc(Nc3ccc(F)c(Cl)c3)c2cc1NC(=O)/C=C/CN1CCCCC1` [Dacomitinib (PF299804, PF299)]: 3.46%; for `CN[C@H]1C(=O)N[C@@H]2Cc3ccc(cc3)Oc3cc4cc(c3O[C@@H]3O[C@H](C(=O)O)[C@@H](O)[C@H](O)[C@H]3NC(=O)CCCCCCCCC(C)C)Oc3ccc(cc3Cl)[C@@H](O)[C@@H]3NC(=O)[C@H](NC(=O)[C@@H]4NC(=O)[C@@H](NC2=O)c2cc(cc(O)c2Cl)Oc2cc1ccc2O)c1ccc(O)c(c1)-c1c(O[C@H]2O[C@H](CO)[C@@H](O)[C@H](O)[C@@H]2O)cc(O)cc1[C@@H](C(=O)NCCCN(C)C)NC3=O` [Dalbavancin]: 23.4%; for `CN1C[C@@H]2C[C@H]1CN2c1cc2c(cc1F)c(=O)c(C(=O)O)cn2C1CC1` [Danofloxacin Mesylate]: 0%.
The same measure, in the same setting: then `O=C1c2cccc(O)c2C(=O)c2c(O)cccc21` [Danthron], with 0%.
In the case of `O=C1CN(/N=C/c2ccc(-c3ccc([N+](=O)[O-])cc3)o2)C(=O)N1` [Dantrolene sodium hemiheptahydrate], the “%inhibition” value amounted to 2.991%.
As to `O=C1CN(/N=C/c2ccc(-c3ccc([N+](=O)[O-])cc3)o2)C(=O)N1` [Dantrolene sodium], the “%inhibition” value was 11.92%.
The same measure, in the same setting: then `CCOc1ccc(Cc2cc([C@@H]3O[C@H](CO)[C@@H](O)[C@H](O)[C@H]3O)ccc2Cl)cc1` [Dapagliflozin propanediol monohydrate], with 0%; and `CCOc1ccc(Cc2cc([C@@H]3O[C@H](CO)[C@@H](O)[C@H](O)[C@H]3O)ccc2Cl)cc1` [Dapagliflozin], with 1.439%.
Take `Cc1ccccc1N1CCN(CCc2nnc3n2CCCC3)CC1` [Dapiprazole Hydrochloride]: the inhibition at 100 µM was found to be 12.7%.
Still for that read-out and setting: the same measure for `CN(C)[C@@H](CCOc1cccc2ccccc12)c1ccccc1` [Dapoxetine HCl]: 35.7%.
Same read-out and setting: the same measure for `Nc1ccc(S(=O)(=O)c2ccc(N)cc2)cc1` [Dapson]: 0%; for `CCCCCCCCCC(=O)N[C@@H](Cc1c[nH]c2ccccc12)C(=O)N[C@H](CC(N)=O)C(=O)N[C@@H](CC(=O)O)C(=O)N[C@@H]1C(=O)NCC(=O)N[C@@H](CCCN)C(=O)N[C@@H](CC(=O)O)C(=O)N[C@H](C)C(=O)N[C@@H](CC(=O)O)C(=O)NCC(=O)N[C@H](CO)C(=O)N[C@@H]([C@H](C)CC(=O)O)C(=O)N[C@@H](CC(=O)c2ccccc2N)C(=O)O[C@@H]1C` [Daptomycin]: 1.7%.
Same read-out and setting: then `NC(=O)C(c1ccccc1)(c1ccccc1)[C@@H]1CCN(CCc2ccc3c(c2)CCO3)C1` [Darifenacin HBr], with 0%.
In the case of `CC(C)CN(C[C@@H](O)[C@H](Cc1ccccc1)NC(=O)O[C@H]1CO[C@H]2OCC[C@H]21)S(=O)(=O)c1ccc(N)cc1` [Darunavir Ethanolate], the inhibition at 100 µM came to 0%.
The same measure, in the same setting: the same measure for `COc1c(-c2ccc3cc(NS(C)(=O)=O)ccc3c2)cc(-n2ccc(=O)[nH]c2=O)cc1C(C)(C)C` [Dasabuvir(ABT-333)]: 0.42%.
`COc1cccc2c1C(=O)c1c(O)c3c(c(O)c1C2=O)C[C@@](O)(C(C)=O)C[C@@H]3O[C@H]1C[C@H](N)[C@H](O)[C@H](C)O1` [Daunorubicin HCl]: the inhibition at 100 µM came out at 30.2%.
On to `C[N+](C)(C)CCCCCCCCCC[N+](C)(C)C` [Decamethonium Bromide], for which the inhibition at 100 µM was 0%.
Take `Nc1ncn([C@H]2C[C@H](O)[C@@H](CO)O2)c(=O)n1` [Decitabine]: the inhibition at 100 µM is 0%.
Consider `CNC(=O)c1ccc(Nc2ncc(C(F)(F)F)c(NCc3nccnc3N(C)S(C)(=O)=O)n2)cc1` [Defactinib (VS-6063, PF-04554878)], for which the inhibition at 100 µM was 0%.
As to `O=C(O)c1ccc(-n2nc(-c3ccccc3O)nc2-c2ccccc2O)cc1` [Deferasirox], the inhibition at 100 µM is 16.8%.
The same measure, in the same setting: then `Cc1c(O)c(=O)ccn1C` [Deferiprone], with 0%.
On the same count and under the same terms, the same measure for `CC(=O)OCC(=O)[C@@]12N=C(C)O[C@@H]1C[C@H]1[C@@H]3CCC4=CC(=O)C=C[C@]4(C)[C@H]3[C@@H](O)C[C@@]12C` [Deflazacort]: 37.4%; for `C[C@H](CCC(=O)O)[C@H]1CC[C@H]2[C@@H]3C(=O)C[C@@H]4CC(=O)CC[C@]4(C)[C@H]3CC(=O)[C@]12C` [Dehydrocholic acid]: 0%.
Still for that read-out and setting: the same measure for `CC(=O)O[C@H]1CC[C@@]2(C)C(=CC[C@@H]3[C@@H]2CC[C@]2(C)C(=O)CC[C@@H]32)C1` [Dehydroepiandrosterone acetate]: 15.8%; for `C[C@]1(COc2ccc(N3CCC(Oc4ccc(OC(F)(F)F)cc4)CC3)cc2)Cn2cc([N+](=O)[O-])nc2O1` [Delamanid]: 22.1%; for `CC(C)C[C@H](NC(=O)[C@@H](NC(=O)c1cccc(-c2ccccc2)n1)[C@@H](C)O)B(O)O` [Delanzomib (CEP-18770)]: 0%.
For `CCOC(=O)[C@H](CCc1ccccc1)N[C@@H](C)C(=O)N(CC(=O)O)C1Cc2ccccc2C1` [Delapril Hydrochloride], the inhibition at 100 µM worked out at 0.215%.
On the same count and under the same terms, then `CN(C)[C@@H]1C(O)=C(C(N)=O)C(=O)[C@@]2(O)C(O)=C3C(=O)c4c(O)ccc(Cl)c4[C@@H](O)[C@H]3C[C@@H]12` [Demeclocycline HCl], with 4.3%.
On to `C[C@H](CCC(=O)O)[C@H]1CC[C@H]2[C@@H]3CC[C@@H]4C[C@H](O)CC[C@]4(C)[C@H]3C[C@H](O)[C@]12C` [Deoxycholic acid], for which the inhibition at 100 µM was 0%.
Still for that read-out and setting: the same measure for `CC(=O)OCC(=O)[C@H]1CC[C@H]2[C@@H]3CCC4=CC(=O)CC[C@]4(C)[C@H]3CC[C@]12C` [Deoxycorticosterone acetate]: 3.46%; for `CNCCCN1c2ccccc2CCc2ccccc21` [Desipramine Hydrochloride]: 15.3%; for `N=C(N)NCCC[C@@H](NC(=O)[C@@H]1CCCN1C(=O)[C@@H]1CSSCCC(=O)N[C@@H](Cc2ccc(O)cc2)C(=O)N[C@@H](Cc2ccccc2)C(=O)N[C@@H](CCC(N)=O)C(=O)N[C@@H](CC(N)=O)C(=O)N1)C(=O)NCC(N)=O` [Desmopressin Acetate]: 8.25%.
The same measure, in the same setting: then `C#C[C@]1(O)CC[C@H]2[C@@H]3CCC4=CCCC[C@@H]4[C@H]3C(=C)C[C@@]21CC` [Desogestrel], with 0%; and `CC1(C)O[C@@H]2C[C@H]3[C@@H]4CCC5=CC(=O)C=C[C@]5(C)[C@H]4[C@@H](O)C[C@]3(C)[C@]2(C(=O)CO)O1` [Desonide], with 17.1%; and `CN(C)CC(c1ccc(O)cc1)C1(O)CCCCC1` (stereo not shown) [Desvenlafaxine Succinate], with 7.7%.
`CN(C)CC(c1ccc(O)cc1)C1(O)CCCCC1` (stereo not shown) [Desvenlafaxine]: the “%inhibition” value is recorded as 6.836%.
On to `Cc1cccc(Cc2c[nH]cn2)c1C` [Detomidine HCl], for which the inhibition at 100 µM was determined as 0%.

The record behind these values is doi:10.1101/2021.10.07.463234v2 (biorxiv, 2021).
